Data reported in US9487504B2, “Imidazolyl analogs as syk inhibitors” (Merck Sharp & Dohme Corp., priority 2012, dated 2016).

The compounds below were run against T1, recombinant human GST-Syk (Homo sapiens, UniProt P43405) (assay: Homogeneous Time-Resolved Fluorescence (HTRF) assay for the recombinant human Syk enzyme). Conditions: ATP 25 μM, 10-dose titration, read-out: rhSYK Activity.
T1 construct: purchased Carna Biosciences 08-176
Format: biochemical
Summary of the method: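 Recombinant GST-hSyk ([…]) was preincubated 10 min at room temperature with inhibitor (0.1% DMSO) in Tris pH 7.5, then reacted for 45 min with 250 nM biotinylated peptide, 5 mM Mg and 25 μM ATP. Phosphorylation was detected by HTRF (Eu-anti-phosphotyrosine/SA-APC). IC50 was derived from a 10-dose titration (10 μM–0.508 nM) with a 4-parameter fit.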
For `COC(=O)c1ccc2c(c1)ncn2-c1cc(C)cc(Nc2nccc(C)n2)c1` [Example 73, Methyl 1-{3-methyl-5-[(4-methyl-pyrimidin-2-yl)amino]phenyl}-1H-benzimidazole-5-carboxylate], the IC50 was ≤ 100 nM. `Cc1cc(Nc2cc(C(F)(F)F)ccn2)nc(-n2cnc(CCC(=O)O)c2)c1` [Example 74, 3-[1-(4-methyl-6-{[4-(trifluoromethyl)-pyridin-2-yl]amino}-pyridin-2-yl)-1H-imidazol-4-yl]-propanoic acid] gave an IC50 of 100 to 1000 nM. For `Cc1cc(Nc2nccc(C3CC3)n2)cc(-n2cnc(CCC(=O)O)c2)c1` [Example 75, 3-(1-{3-[(4-cyclopropylpyrimidin-2-yl)amino]-5-methylphenyl}-1H-imidazol-4-yl)propanoic acid], the IC50 was ≤ 100 nM. `Cc1cc(Nc2nccc(C(F)(F)F)n2)cc(-n2cnc(CCC(=O)O)c2)c1` [Example 76, 3-[1-(3-methyl-5-{[4-(trifluoromethyl)pyrimidin-2-yl]amino}-phenyl)-1H-imidazol-4-yl]propanoic acid] was tested, and the IC50 was ≤ 100 nM. In the case of `Cc1cc(Nc2nccc(C(F)(F)F)n2)cc(-n2cnc(CC#N)c2)c1` [Example 77, [1-(3-methyl-5-{[4-(trifluoromethyl)pyrimidin-2-yl]amino}-phenyl)-1H-imidazol-4-yl]acetonitrile], the IC50 is reported as ≤ 100 nM. For `Cc1cc(Nc2nccc(C(F)(F)F)n2)cc(-n2cnc(C(=O)O)c2)c1` [Example 78, 1-(3-methyl-5-{[4-(trifluoromethyl)-pyrimidin-2-yl]amino}-phenyl)-1H-imidazole-4-carboxylic acid], the IC50 was ≤ 100 nM. For `Nc1cc(Nc2cc(Cl)ccn2)nc(-n2cnc(C(O)(C3CC3)C3CC3)c2)c1` [Example 79, (1-{4-amino-6-[(4-chloropyridin-2-yl)amino}pyridin-2-yl}-1H-imidazol-4-yl)(dicyclopropyl)methanol], the IC50 was ≤ 100 nM. In the case of `Cc1cc(Nc2cc(Cl)ccn2)nc(-n2cnc(C(O)(C3CC3)C3CC3)c2)c1` [Example 80, (1-{6-[(4-chloropyridin-2-yl)amino]-4-methylpyridin-2-yl}-1H-imidazol-4-yl)(dicyclopropyl)-methanol], the IC50 is reported as ≤ 100 nM. `OC(c1cn(-c2cccc(Nc3cc(Cl)ccn3)n2)cn1)(C1CC1)C1CC1` [Example 81, (1-{6-[(4-chloropyridin-2-yl)amino]pyridin-2-yl}-1H-imidazol-4-yl)(dicyclopropyl)-methanol] was tested, and the IC50 was ≤ 100 nM. For `OC(c1cn(-c2cccc(Nc3nccc(C(F)(F)F)n3)c2)cn1)(C1CC1)C1CC1` [Example 82, dicyclopropyl[1-(3-{[4-(trifluoromethyl)-pyrimidin-2-yl]amino}phenyl)-1H-imidazol-4-yl]methanol], the IC50 was ≤ 100 nM. `OC(c1cn(-c2cccc(Nc3cc(C(F)(F)F)ccn3)n2)cn1)(C1CC1)C1CC1` [Example 83, dicyclopropyl[1-(6-{[4-(trifluoromethyl)-pyridin-2-yl]amino}pyridin-2-yl)-1H-imidazol-4-yl]methanol] was tested, and the IC50 was ≤ 100 nM. For `Nc1cc(Nc2cc(C(F)(F)F)ccn2)nc(-n2cnc(C(O)(C3CC3)C3CC3)c2)c1` [Example 84], the IC50 was ≤ 100 nM. `COC(=O)c1cn(-c2cc(N)cc(Nc3cc(C(F)(F)F)ccn3)n2)cn1` [Example 85, Methyl 1-(4-amino-6-{[4-(trifluoromethyl)-pyridin-2-yl]amino}-pyridin-2-yl)-1H-imidazole-4-carboxylate] was tested, and the IC50 was ≤ 100 nM. In the case of `Cc1ccnc(Nc2cc(C)cc(-n3cnc(C(O)(C4CC4)C4CC4)c3)n2)c1` [Example 86, dicyclopropyl(1-{4-methyl-6-[(4-methylpyridin-2-yl)amino]pyridin-2-yl}-1H-imidazol-4-yl)methanol], the IC50 is reported as ≤ 100 nM. For `Cc1ccnc(Nc2cc(C)cc(-n3cnc(C(C)(C)O)c3)n2)c1` [Example 87, 2-(1-{4-methyl-6-[(4-methylpyridin-2-yl)amino]pyridin-2-yl}-1H-imidazol-4-yl)propan-2-ol], the IC50 was ≤ 100 nM. In the case of `Cc1cc(Nc2nccc(C(F)(F)F)n2)cc(-n2cnc(C(=O)N3CCCC3)c2)c1` [Example 88, N-{3-methyl-5-[4-(pyrrolidin-1-ylcarbonyl)-1H-imidazol-1-yl]phenyl}-4-(trifluoromethyl)pyrimidin-2-amine], the IC50 is reported as ≤ 100 nM. `Cc1cc(Nc2nccc(C(F)(F)F)n2)cc(-n2cnc(C(=O)NC(C)C)c2)c1` [Example 89, N-(1-methylethyl)-1-(3-methyl-5-{[4-(trifluoromethyl)pyrimidin-2-yl]amino}-phenyl)-1H-imidazole-4-carboxamide] showed an IC50 of 100 to 1000 nM. In the case of `CC(C)(O)c1cn(-c2cc(Cl)cc(Nc3cc(C(F)(F)F)ccn3)n2)cn1` [Example 90, 2-[1-(4-chloro-6-{[4-(trifluoromethyl)pyridin-2-yl]amino}pyridin-2-yl)-1H-imidazol-4-yl]propan-2-ol], the IC50 is reported as ≤ 100 nM. In the case of `CC(C)(O)c1cn(-c2cc(C(F)(F)F)cc(Nc3cc(C(F)(F)F)ccn3)n2)cn1` [Example 91, 2-{1-[4-(trifluoro-methyl)-6-{[4-(trifluoromethyl)-pyridin-2-yl]amino}-pyridin-2-yl]-1H-imidazol-4-yl}propan-2-ol], the IC50 is reported as 100 to 1000 nM. In the case of `Cc1cc(Nc2cc(C(F)(F)F)ccn2)nc(-n2cnc(C(C)(C)O)c2)c1` [Example 92, 2-[1-(4-methyl-6-{[4-(trifluoromethyl)pyridin-2-yl]amino}pyridin-2-yl)-1H-imidazol-4-yl]propan-2-ol], the IC50 is reported as ≤ 100 nM. For `COC(=O)c1cn(-c2cc(C)cc(Nc3cc(C(F)(F)F)ccn3)n2)cn1` [Example 93, Methyl 1-(4-methyl-6-{[4-(trifluoromethyl)-pyridin-2-yl]amino}-pyridin-2-yl)-1H-imidazole-4-carboxylate], the IC50 was ≤ 100 nM. In the case of `CC(C)(O)c1cn(-c2cccc(Nc3cc(C(F)(F)F)ccn3)n2)cn1` [Example 94, 2-[1-(6-{[4-(trifluoromethyl)-pyridin-2-yl]amino}-pyridin-2-yl)-1H-imidazol-4-yl]propan-2-ol], the IC50 is reported as ≤ 100 nM. With `Cc1cc(Nc2cc(Cl)ccn2)nc(-n2cnc(C(C)(C)O)c2)c1` [Example 95, 2-(1-{6-[(4-chloropyridin-2-yl)amino]-4-methylpyridin-2-yl}-1H-imidazol-4-yl)propan-2-ol] the IC50 was ≤ 100 nM. `COC(=O)c1cn(-c2cccc(Nc3cc(C(F)(F)F)ccn3)n2)cn1` [Example 96, Methyl 1-(6-{[4-(trifluoromethyl)pyridin-2-yl]amino}pyridin-2-yl)-1H-imidazole-4-carboxylate] was tested, and the IC50 was ≤ 100 nM. For `COC(=O)c1cn(-c2cc(C)cc(Nc3cc(Cl)ccn3)n2)cn1` [Example 97, Methyl 1-{6-[(4-chloropyridin-2-yl)amino]-4-methylpyridin-2-yl}-1H-imidazole-4-carboxylate], the IC50 was ≤ 100 nM. For `COC(=O)c1cn(-c2cc(C)cc(Nc3nccc(C(F)(F)F)n3)c2)cn1` [Example 98, Methyl 1-(3-methyl-5-{[4-(trifluoromethyl)-pyrimidin-2-yl]amino}phenyl)-1H-imidazole-4-carboxylate], the IC50 was ≤ 100 nM. For `Cc1cc(Nc2nccc(C(F)(F)F)n2)cc(-n2cnc(C(C)(C)O)c2)c1` [Example 99, 2-[1-(3-methyl-5-{[4-(trifluoromethyl)pyrimidin-2-yl]amino}phenyl)-1H-imidazol-4-yl]propan-2-ol], the IC50 was ≤ 100 nM. For `Cc1ccnc(Nc2cccc(-n3cnc(C(C)(C)O)c3)n2)c1` [Example 100, 2-(1-{6-[(4-methylpyridin-2-yl)amino]pyridin-2-yl}-1H-imidazol-4-yl)propan-2-ol], the IC50 was 100 to 1000 nM. For `CC(C)(O)c1cn(-c2cccc(Nc3cc(Cl)ccn3)n2)cn1` [Example 101, 2-(1-{6-[(4-chloropyridin-2-yl)amino]pyridin-2-yl}-1H-imidazol-4-yl)propan-2-ol], the IC50 was ≤ 100 nM. Work on `COC(=O)c1cn(-c2cccc(Nc3cc(C)ccn3)n2)cn1` [Example 102, Methyl 1-{6-[(4-methylpyridin-2-yl)amino]pyridin-2-yl}-1H-imidazole-4-carboxylate] yielded an IC50 of 100 to 1000 nM. For `CC(C)NC(=O)c1cn(-c2cccc(Nc3nccc(C(F)(F)F)n3)c2)cn1` [Example 103, N-(1-methylethyl)-1-(3-{[4-(trifluoromethyl)pyrimidin-2-yl]amino}phenyl)-1H-imidazole-4-carboxamide], the IC50 was 100 to 1000 nM. `CC(C)(O)c1cn(-c2cccc(Nc3nccc(C(F)(F)F)n3)c2)cn1` [Example 104, 2-[1-(3-{[4-(trifluoromethyl)pyrimidin-2-yl]amino}-phenyl)-1H-imidazol-4-yl]propan-2-ol] was tested, and the IC50 was 100 to 1000 nM. In the case of `CC(C)(O)CCc1cn(-c2cc(Nc3nccc(C(F)(F)F)n3)cc(N3CCOCC3)c2)cn1` [Example 105, 2-methyl-4-[1-(3-morpholin-4-yl-5-{[4-(trifluoromethyl)pyrimidin-2-yl]amino}-phenyl)-1H-imidazol-4-yl]butan-2-ol], the IC50 is reported as ≤ 100 nM. `COC(=O)CCc1cn(-c2cc(Nc3nccc(C(F)(F)F)n3)cc(N3CCOCC3)c2)cn1` [Example 106, Methyl 3-[1-(3-morpholin-4-yl-5-{[4-(trifluoromethyl)pyrimidin-2-yl]amino}-phenyl)-1H-imidazol-4-yl]propanoate] was tested, and the IC50 was ≤ 100 nM. For `CC(C)(O)c1cn(-c2cc(Nc3nccc(C(F)(F)F)n3)cc(N3CCOCC3)c2)cn1` [Example 107, 2-[1-(3-morpholin-4-yl-5-{[4-(trifluoromethyl)pyrimidin-2-yl]amino}-phenyl)-1H-imidazol-4-yl]propan-2-ol], the IC50 was ≤ 100 nM. `COC(=O)c1cn(-c2cc(Nc3nccc(C(F)(F)F)n3)cc(N3CCOCC3)c2)cn1` [Example 108, Methyl 1-(3-morpholin-4-yl-5-{[4-(trifluoromethyl)-pyrimidin-2-yl]amino}-phenyl)-1H-imidazole-4-carboxylate] showed an IC50 of 100 to 1000 nM. `Cc1cc(Nc2nccc(C(F)(F)F)n2)cc(-n2cnc(C3(O)CCNC(=O)CC3)c2)c1` (centres unmarked) [Example 109, 5-hydroxy-5-[1-(3-methyl-5-{[4-(trifluoromethyl)pyrimidin-2-yl]amino}phenyl)-1H-imidazol-4-yl]azepan-2-one] was tested, and the IC50 was ≤ 100 nM.

Same assay, conditions: ATP 25 μM, 10-dose titration, read-out: rhSYK IC50
With `Cc1cc(Nc2nccc(C(F)(F)F)n2)cc(-n2cnc(C3(O)CCNC(=O)CC3)c2)c1` (centres unmarked) [Example 109, 5-hydroxy-5-[1-(3-methyl-5-{[4-(trifluoromethyl)pyrimidin-2-yl]amino}phenyl)-1H-imidazol-4-yl]azepan-2-one] the IC50 was 19.7 nM.
